The source of these data is ChEMBL document CHEMBL6153051, “Synthesis, biological evaluation and validation of IMB-881 derivatives as anti-Gram-negative bacterial agents” (Bioorg Med Chem, 2025).

Structures are written as SMILES. Converted amounts (≈) assume the structure as drawn.

One data set concerns Escherichia coli. As to the kind of experiment: Antibacterial activity against Escherichia coli ATCC 25922 assessed as bacterial growth inhibition in presence of CAMHB medium by broth microdilution method. Format: functional.
The next data set deals with Acinetobacter baumannii. Description: Antibacterial activity against Acinetobacter baumannii ATCC 19606 assessed as bacterial growth inhibition in presence of CAMHB medium by broth microdilution method. Format: functional.
For another data set, the system named is Pseudomonas aeruginosa. Description: Antibacterial activity against Pseudomonas aeruginosa PAO1 assessed as bacterial growth inhibition in presence of CAMHB medium by broth microdilution method. Format: functional.
The nature of data set [1]: Cytotoxicity against dog MDCK cells incubated for 48 hrs by CCK-8 assay. Format: toxicity, cell-based. The settings on record: dog (Canis lupus familiaris).
Another data set relates to Klebsiella pneumoniae. As to the kind of experiment: Antibacterial activity against Klebsiella pneumoniae ATCC […] assessed as bacterial growth inhibition in presence of CAMHB medium by broth microdilution method. In kind it is functional.
Data set [2] in a line: Cytotoxicity against green monkey Vero cells incubated for 48 hrs by CCK-8 assay. The following applies: green monkey (Chlorocebus sabaeus). In kind it is toxicity, cell-based.

For `Cc1ccc(CCN2COc3c(cc(Br)c4cccnc34)C2)cc1`, the MIC with Escherichia coli worked out at 50 µg/mL.
Regarding `COc1ccc(CCN2COc3c(cc(Cl)c4cccnc34)C2)cc1OC`, in the data set with Escherichia coli, the MIC was found to be 25 µg/mL.
Still for that read-out and setting: to `Clc1ccc(OCCN2COc3c(cc(Br)c4cccnc34)C2)cc1` belongs 50 µg/mL.
Consider `Fc1ccc(CCN2COc3c(cc(Cl)c4cccnc34)C2)cc1`, for which the MIC with Acinetobacter baumannii is 6.25 µg/mL; in the data set on Escherichia coli, 12.5 µg/mL; in the data set with Pseudomonas aeruginosa, 100 µg/mL; in the data set with Klebsiella pneumoniae, 50 µg/mL. Moreover, the half-inhibitory concentration (IC50) at 48 h was found to be 17.8 µg/mL (≈ 52.1 µM) in data set [1] and 40.1 µg/mL (≈ 117 µM) in data set [2].
Consider `Brc1cc2c(c3ncccc13)OCN(Cc1ccccc1)C2`, for which, in the data set on Escherichia coli, the MIC came to 25 µg/mL.
For `Fc1ccc(CCN2COc3c(cc(Br)c4cccnc34)C2)cc1`, the minimum inhibitory concentration (MIC) in the data set on Escherichia coli was determined as 25 µg/mL.
For `FC(F)(F)Oc1ccc(CN2COc3c(cc(Br)c4cccnc34)C2)cc1`, in the data set on Escherichia coli, the MIC is greater than 100 µg/mL.
Turning to `Fc1cc(CN2COc3c(cc(Cl)c4cccnc34)C2)cc(F)c1F`, the MIC with Escherichia coli stood at 25 µg/mL.
Take `Clc1cccc(CN2COc3c(cc(Cl)c4cccnc34)C2)c1`: the MIC with Acinetobacter baumannii stood at 12.5 µg/mL; in the data set with Escherichia coli, 12.5 µg/mL; in the data set on Pseudomonas aeruginosa, 100 µg/mL; in the data set on Klebsiella pneumoniae, 50 µg/mL. Besides, the IC50 at 48 h was 23.9 µg/mL (≈ 69.1 µM) in data set [1] and greater than 50 µg/mL in data set [2].
For `Clc1cc2c(c3ncccc13)OCN(CCCCc1ccccc1)C2`, the MIC in the data set on Acinetobacter baumannii worked out at 3.12 µg/mL; in the data set on Escherichia coli, 12.5 µg/mL; in the data set with Pseudomonas aeruginosa it was 100 µg/mL; in the data set on Klebsiella pneumoniae, 100 µg/mL. For the same compound, the IC50 at 48 h is 33.8 µg/mL (≈ 95.9 µM) in data set [1] and greater than 50 µg/mL in data set [2].
As to `Oc1ccc(CCN2COc3c(cc(F)c4cccnc34)C2)cc1`, in the data set with Escherichia coli, the MIC was greater than 100 µg/mL.
In the case of `FC(F)(F)c1ccc(CN2COc3c(cc(Cl)c4cccnc34)C2)cc1`, the MIC in the data set on Escherichia coli amounted to 25 µg/mL.
Consider `Clc1cc2c(c3ncccc13)OCN(CCc1cccc(Br)c1)C2`, for which, in the data set with Escherichia coli, the MIC is greater than 100 µg/mL.
In the case of `COc1ccc(CCN2COc3c(cc(Br)c4cccnc34)C2)cc1OC`, the MIC in the data set with Escherichia coli was greater than 100 µg/mL.
Still for that read-out and setting: to `Cc1ccc(CCN2COc3c(cc(Cl)c4cccnc34)C2)cc1` belongs 50 µg/mL.
With `Cc1ccc(CCN2COc3c(cc(F)c4cccnc34)C2)cc1`, in the data set on Escherichia coli, the MIC worked out at 25 µg/mL.
Consider `FC(F)(F)c1ccc(CN2COc3c(cc(Br)c4cccnc34)C2)cc1`, for which the MIC in the data set on Escherichia coli worked out at 50 µg/mL.
Still for that read-out and setting: to `Clc1cccc(CN2COc3c(cc(Br)c4cccnc34)C2)c1` belongs 25 µg/mL.
For `Fc1cc2c(c3ncccc13)OCN(CCOc1ccc(Cl)cc1)C2`, the MIC in the data set with Acinetobacter baumannii turned out to be 12.5 µg/mL; with Escherichia coli, 12.5 µg/mL; with Pseudomonas aeruginosa it was 100 µg/mL; in the data set with Klebsiella pneumoniae, 50 µg/mL. Further, the 50% inhibitory concentration (IC50) at 48 h in data set [1] is 22.3 µg/mL (≈ 62 µM); in data set [2], greater than 50 µg/mL.
For the compound `Clc1cc2c(c3ncccc13)OCN(Cc1ccccc1)C2`, the minimal inhibitory concentration (MIC) with Acinetobacter baumannii was 6.25 µg/mL; in the data set with Escherichia coli, 12.5 µg/mL; in the data set with Pseudomonas aeruginosa, 100 µg/mL; with Klebsiella pneumoniae it was greater than 100 µg/mL. Besides, the half-inhibitory concentration (IC50) at 48 h in data set [1] was 33.8 µg/mL (≈ 109 µM); in data set [2], greater than 50 µg/mL.
Turning to `Fc1ccc(CCN2COc3c(cc(F)c4cccnc34)C2)cc1`, the MIC in the data set with Acinetobacter baumannii was found to be 12.5 µg/mL; in the data set with Escherichia coli it was 12.5 µg/mL; in the data set on Pseudomonas aeruginosa it was 100 µg/mL; in the data set on Klebsiella pneumoniae it was 100 µg/mL. Besides, the IC50 at 48 h in data set [1] came to 15.8 µg/mL (≈ 48.3 µM); in data set [2], 27.7 µg/mL (≈ 84.8 µM).
`Brc1ccc(CCN2COc3c(cc(Br)c4cccnc34)C2)cc1`: the MIC with Escherichia coli turned out to be 50 µg/mL.
In the case of `Clc1ccc(CN2COc3c(cc(Br)c4cccnc34)C2)cc1`, the MIC in the data set on Escherichia coli was greater than 100 µg/mL.
On to `Brc1cc2c(c3ncccc13)OCN(CCCCc1ccccc1)C2`, for which the MIC with Escherichia coli is 25 µg/mL.
Regarding `Brc1cc2c(c3ncccc13)OCN(CCc1ccccc1)C2`, the MIC in the data set on Escherichia coli is 25 µg/mL.
Take `Clc1ccc(CCN2COc3c(cc(Cl)c4cccnc34)C2)cc1`: the MIC is 6.12 µg/mL in the data set with Acinetobacter baumannii, 12.5 µg/mL with Escherichia coli, 100 µg/mL in the data set on Pseudomonas aeruginosa and greater than 100 µg/mL with Klebsiella pneumoniae. For the same compound, the IC50 at 48 h in data set [1] is 39.7 µg/mL (≈ 110 µM); in data set [2], greater than 50 µg/mL.
For `Fc1ccc(CN2COc3c(cc(Br)c4cccnc34)C2)c(F)c1`, the MIC in the data set on Escherichia coli worked out at 25 µg/mL.
As for `Fc1cc(CN2COc3c(cc(F)c4cccnc34)C2)cc(F)c1F`, in the data set with Escherichia coli, the MIC came out at 25 µg/mL.
For `Fc1cc2c(c3ncccc13)OCN(CCc1ccccc1)C2`, the MIC in the data set with Acinetobacter baumannii turned out to be 6.25 µg/mL; in the data set on Escherichia coli it was 6.25 µg/mL; in the data set on Pseudomonas aeruginosa, 100 µg/mL; in the data set on Klebsiella pneumoniae, 50 µg/mL. In addition, the IC50 at 48 h in data set [1] was found to be 8.97 µg/mL (≈ 29.1 µM); in data set [2], 14.7 µg/mL (≈ 47.8 µM).
Regarding `Fc1cc2c(c3ncccc13)OCN(Cc1ccc(OC(F)(F)F)cc1)C2`, the MIC in the data set with Escherichia coli was 25 µg/mL.
With `Fc1cc2c(c3ncccc13)OCN(CCCCc1ccccc1)C2`, the MIC in the data set with Acinetobacter baumannii was 6.25 µg/mL; in the data set with Escherichia coli, 6.25 µg/mL; with Pseudomonas aeruginosa, 100 µg/mL; with Klebsiella pneumoniae, greater than 100 µg/mL. In addition, the IC50 at 48 h in data set [1] was 29.3 µg/mL (≈ 87.1 µM); in data set [2] it was 36.1 µg/mL (≈ 107 µM).
Consider `Fc1cc2c(c3ncccc13)OCN(Cc1cccc(Cl)c1)C2`, for which the MIC with Acinetobacter baumannii stood at 6.25 µg/mL; in the data set with Escherichia coli, 6.25 µg/mL; with Pseudomonas aeruginosa, 50 µg/mL; in the data set with Klebsiella pneumoniae, 50 µg/mL. The IC50 at 48 h in data set [1] was determined as 19 µg/mL (≈ 57.7 µM); in data set [2] it was 34 µg/mL (≈ 103 µM).
`Fc1cccc(CCN2COc3c(cc(F)c4cccnc34)C2)c1`: the MIC in the data set with Acinetobacter baumannii was 3.12 µg/mL; in the data set with Escherichia coli, 3.12 µg/mL; in the data set with Pseudomonas aeruginosa it was 25 µg/mL; in the data set on Klebsiella pneumoniae, 25 µg/mL. Also, the IC50 at 48 h in data set [1] turned out to be 29.4 µg/mL (≈ 90.2 µM); in data set [2], 21.3 µg/mL (≈ 65.2 µM).
With `Fc1cc2c(c3ncccc13)OCN(CCOc1ccccc1)C2`, in the data set on Escherichia coli, the MIC was 25 µg/mL.
As to `Fc1cc2c(c3ncccc13)OCN(CCCc1ccccc1)C2`, the MIC in the data set on Acinetobacter baumannii came out at 6.25 µg/mL; in the data set on Escherichia coli it was 6.25 µg/mL; in the data set on Pseudomonas aeruginosa, 100 µg/mL; in the data set on Klebsiella pneumoniae, 50 µg/mL. Besides, the IC50 at 48 h in data set [1] was found to be 26 µg/mL (≈ 80.5 µM); in data set [2] it was 13.6 µg/mL (≈ 42.1 µM).
Regarding `Brc1cc2c(c3ncccc13)OCN(CCCc1ccccc1)C2`, the minimal inhibitory concentration (MIC) in the data set with Escherichia coli worked out at 50 µg/mL.
Take `Fc1cc2c(c3ncccc13)OCN(Cc1ccccc1)C2`: the MIC with Escherichia coli was determined as 25 µg/mL.
Still for that read-out and setting: to `Brc1cc2c(c3ncccc13)OCN(CCOc1ccccc1)C2` belongs 25 µg/mL; to `Clc1cc2c(c3ncccc13)OCN(CCOc1ccccc1)C2`, 25 µg/mL.
In the case of `Fc1cc(CN2COc3c(cc(Br)c4cccnc34)C2)cc(F)c1F`, the MIC in the data set on Escherichia coli is 25 µg/mL.
As to `Clc1cc2c(c3ncccc13)OCN(CCc1ccc(Br)cc1)C2`, the MIC in the data set with Acinetobacter baumannii was 6.25 µg/mL; with Escherichia coli, 12.5 µg/mL; in the data set with Pseudomonas aeruginosa, 100 µg/mL; in the data set on Klebsiella pneumoniae, greater than 100 µg/mL. The IC50 at 48 h in data set [1] is 35.2 µg/mL (≈ 87.3 µM); in data set [2], greater than 50 µg/mL.
Turning to `Fc1ccc(CN2COc3c(cc(F)c4cccnc34)C2)c(F)c1`, the MIC with Escherichia coli was 25 µg/mL.
On to `Fc1cc2c(c3ncccc13)OCN(Cc1ccc(C(F)(F)F)cc1)C2`, for which the MIC in the data set with Acinetobacter baumannii amounted to 12.5 µg/mL; in the data set on Escherichia coli, 12.5 µg/mL; with Pseudomonas aeruginosa, 100 µg/mL; in the data set on Klebsiella pneumoniae, 100 µg/mL. The results for the IC50 at 48 h in data set [1] and in data set [2] were 7.93 µg/mL (≈ 21.9 µM) and 46.1 µg/mL (≈ 127 µM), respectively.
Turning to `FC(F)(F)Oc1ccc(CN2COc3c(cc(Cl)c4cccnc34)C2)cc1`, the MIC in the data set on Escherichia coli was determined as 50 µg/mL.
The same measure, in the same setting: with `Clc1ccc(OCCN2COc3c(cc(Cl)c4cccnc34)C2)cc1` the figure was 25 µg/mL.
